Patent US10370425B2, “Peptide antagonists of the calcitonin CGRP family of peptide hormones and their use” (priority 2012, dated 2019)
Like-named read-outs stand apart in the source and are kept apart here. Positions of bridges follow the written chain, without caps; N, C: chain ends. Residues, ends and D or L forms follow the SMILES beside them. No end group written: not given here.

Molecular target: T1, amylin receptor, AMY1, a CT (calcitonin) receptor/RAMP1 (receptor-activity modifying protein) complex (Homo sapiens, UniProt O60894+P30988)
T1 construct: host or cells: CHO-K1/AMY1/Gα15
T1 sequence (P30988 25-474): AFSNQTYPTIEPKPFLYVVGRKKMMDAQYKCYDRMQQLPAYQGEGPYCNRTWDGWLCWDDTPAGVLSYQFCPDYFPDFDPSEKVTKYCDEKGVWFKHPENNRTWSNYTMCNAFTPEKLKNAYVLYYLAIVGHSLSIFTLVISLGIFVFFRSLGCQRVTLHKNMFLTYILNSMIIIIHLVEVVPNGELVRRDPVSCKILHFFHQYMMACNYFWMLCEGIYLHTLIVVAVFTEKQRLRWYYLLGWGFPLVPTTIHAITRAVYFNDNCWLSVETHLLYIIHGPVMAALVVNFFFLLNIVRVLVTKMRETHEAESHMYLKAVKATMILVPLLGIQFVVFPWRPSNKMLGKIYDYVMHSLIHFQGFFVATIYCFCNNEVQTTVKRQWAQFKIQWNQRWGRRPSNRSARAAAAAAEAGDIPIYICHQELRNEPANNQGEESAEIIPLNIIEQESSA
T1 sequence (O60894 27-148): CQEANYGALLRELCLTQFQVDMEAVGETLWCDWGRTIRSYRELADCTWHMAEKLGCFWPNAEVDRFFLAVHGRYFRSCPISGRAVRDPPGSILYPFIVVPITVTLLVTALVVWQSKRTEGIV
Experiment: Calcium flux assay (FLIPR Calcium 4) of inhibition of α-CGRP stimulation in CHO-K1/AMY1/Gα15 cells
Format: cell-based
Settings: for inhibition at 1 µM: at maximal test concentration (series starts with 1 μM), CHO-K1/AMY1/Gα15 cells stimulated with 32 nM (EC80) α-CGRP, n = 2, read-out: % Inhibition @ Maximal concentration (Mean +/− SD, n = 2)
Procedure: Using a calcium flux assay, the dose-dependent inhibitory response of peptide antagonists of the present invention on an amylin receptor, AMY1, a CT (calcitonin) receptor/RAMP1 (receptor-activity modifying protein) complex was determined. The recombinant cell line CHO-K1/AMY1/Gα15 (GenScript, Piscataway, N.J., Catalog No. M00475) was employed in the assay. Peptide antagonist activities were tested, in duplicate, at five different concentrations, starting with 1 μM and serially diluted five-fold, in DMSO. AC187 (SEQ ID NO: 55), a known amylin receptor antagonist (available for example from Tocris Bioscience, Minneapolis, Minn., Catalog No. 3419) was used as a positive control in the assays, and human α-CGRP, a known amylin receptor agonist (SEQ ID NO:56) , (available for example from Tocris Bioscience, Minneapolis, Minn., Catalog No. 3012) was used as a positive control in the assays. The FLIPR® Calcium 4 Assay Kit (Molecular Devices, Sunnyvale, Calif.) was used.
Human α-CGRP having the amino acid sequence, NH2-[…]-NH2 (SEQ ID NO:56) and AC187 having the sequence […] (SEQ ID NO: 55) were employed as negative and positive controls, respectively. Stock solutions were further diluted in HBSS-HEPES buffer to make 5×final control solutions.
CHO-K1/AMY1/Gα15 cells were seeded in a 384-well black wall, clear bottom plate at a density of 20,000 cells/well in 20 μL of growth medium 20 hours prior to the day of the experiment and maintained at 37° C./5% CO2.
Per the assay kit protocol, dye-loading solution (at 2×final concentration) was added into the assay plate, 20 μL per well. Compound solution (at 5 ×final concentration) was added into the assay plate, 10 uL per well. The assay plate was placed into a 37° C. incubator for 1 hour, then left for 15 min at RT. The agonist plate (at 5×EC80 concentration) was placed in Source 2. The total reading time was 120 sec. The agonist was added after 20 seconds reading of the baseline and the fluorescence signal was captured for another 100 seconds (21 s to 120 s).
In screening, cells stimulated with assay buffer were chosen as the background; cells stimulated with agonist (at […] concentration) were chosen as the negative control.
Data were recorded by ScreenWorks (version 3.1) as FMD files and stored on the GenScript computer network for off-line analysis. Data acquisition and analyses was performed using ScreenWorks (version 3.1) program and exported to Excel. The average value of 20 (1 s to 20 s) seconds reading was calculated as the baseline reading and the relative fluorescent units (ΔRFU) intensity values were calculated with the maximal fluorescent units (21 s to 120 s) subtracting the average value of baseline reading.
The IC50 value of AC187 was 8 μM. The inhibitory activity of the tested peptide antagonists was normalized with the negative control (AC187) and reported as % Inhibition, calculated from the following equation: % Inhibition=(ΔRFUcompound−ΔRFUBackground)/(ΔRFUNegative control−ΔRFUBackground) * 100% Inhibition was then plotted along the Y-axis, with the test concentrations as indicated on the X-axis. The peptides were tested at indicated concentrations and stimulated with 32 nM (EC80) α-CGRP (Mean +/− SD, n=2).

| Compound | inhibition at 1 µM [%] | IC50 (CHO-K1/AMY1/Gα15 calcium flux, read-out: IC50 value) [nM] | IC50 (positive control, CHO-K1/AMY1/Gα15 cells stimulated with α-CGRP, read-out: IC50 nM (assay positive control)) [nM] |
| --- | --- | --- | --- |
| CC(C)C[C@H](NC(=O)[C@H](CCCNC(=N)N)NC(=O)CNC(=O)[C@H](CC(C)C)NC(=O)[C@@H](NC(=O)[C@@H]1CSSC[C@H](NC(=O)[C@H](C)N)C(=O)N[C@@H](C(C)C)C(=O)N[C@@H](CC(C)C)C(=O)NCC(=O)N[C@@H](C)C(=O)N1)C(C)C)C(=O)N[C@@H](CO)C(=O)N[C@@H](CCC(N)=O)C(=O)N[C@@H](CCC(=O)O)C(=O)N[C@@H](CC(C)C)C(=O)N[C@@H](Cc1c[nH]cn1)C(=O)N[C@@H](CCCNC(=N)N)C(=O)N[C@@H](CC(C)C)C(=O)N[C@@H](CCC(N)=O)C(=O)N[C@H](C(=O)N[C@@H](Cc1ccc(O)cc1)C(=O)N1CCC[C@H]1C(=O)N[C@H](C(=O)N[C@@H](CC(=O)O)C(=O)N1CCC[C@H]1C(=O)N[C@@H](CO)C(=O)N[C@@H](CO)C(=O)N1CCC[C@H]1C(=O)N[C@@H](Cc1c[nH]cn1)C(=O)N[C@@H](CO)C(=O)N[C@@H](Cc1ccc(O)cc1)C(N)=O)C(C)C)[C@@H](C)O [compound 14] (H-ACVLGACVLGRLSQELHRLQTYPVDPSSPHSY-NH2; disulfide 2-7 (inferred)) | 51.9 | – | – |
| CC(C)C[C@H](NC(=O)CNC(=O)[C@H](C)NC(=O)[C@H](CC(C)C)NC(=O)[C@H](CCCNC(=N)N)NC(=O)[C@H](Cc1c[nH]cn1)NC(=O)[C@@H](NC(=O)[C@@H](NC(=O)[C@@H]1CSSC[C@H](NC(=O)[C@H](C)N)C(=O)N[C@@H](CC(=O)O)C(=O)N[C@@H]([C@@H](C)O)C(=O)N[C@@H](C)C(=O)N[C@@H](C)C(=O)N1)C(C)C)[C@@H](C)O)C(=O)N[C@@H](CC(C)C)C(=O)N[C@@H](CO)C(=O)N[C@@H](CCCNC(=N)N)C(=O)N[C@@H](CO)C(=O)NCC(=O)NCC(=O)N[C@H](C(=O)N[C@H](C(=O)N[C@@H](CCCCN)C(=O)N[C@@H](CC(N)=O)C(=O)N[C@@H](CC(N)=O)C(=O)N[C@@H](Cc1ccccc1)C(=O)N[C@H](C(=O)N1CCC[C@H]1C(=O)N[C@H](C(=O)N[C@@H](CC(N)=O)C(=O)N[C@H](C(=O)NCC(=O)N[C@@H](CO)C(=O)N[C@@H](CCCCN)C(=O)N[C@@H](C)C(=O)N[C@@H](Cc1ccccc1)C(N)=O)C(C)C)[C@@H](C)O)C(C)C)C(C)C)C(C)C [compound 15] | 23.3 | – | – |
| VLGKLSQELHKLQTYPRTNTGSNTY [AC187, reference compound] | – | 8000 | 8150 |
